{
  "source": "patent US11959096B2",
  "about": "“Methods for selective inhibition of pluripotent stem cells” (THE MEDICAL COLLEGE OF WISCONSIN, INC., priority 2014, dated 2024)",
  "key": {"[1]": {"assay": "Neutral red cell viability assay in hiPSC", "type": "cell-based, human", "conditions": "human, hiPSC (DF6-9-9T) cells; 72 hours after start of treatment; both confluent and sub-confluent cells; 2.5 μM; read-out: viable cells remaining", "method": "(§1) Neutral red assays for cell viability were performed as previously described. In vitro cell death was determined using SYTOX® Green nucleic acid stain (Life Technologies). Briefly, cells were incubated in 5 μM SYTOX® Green for 30 minutes at 37° C. in a humidified cell incubator with 5% CO2. […] Imaging of cell viability was performed using Live/Dead® Viability/Cytotoxicity Kit, for mammalian cells (Life Technologies). Cells were stained for 20 minutes at room temperature with 4 μM Calcein AM to detect viable cells and 2 μM Ethidium Homodimer 1 to detect cells with compromised membranes. […] Imaging was performed with a Nikon Ti-U inverted microscope."}, "[2]": {"tested_on": "hiPSC (DF6-9-9T)", "assay": "Neutral red cell viability assay in hiPSC", "type": "cell-based, human", "conditions": "for LD50: 24 hour pulse treatment, viability 72 hours after treatment initiation", "method": "as §1"}, "[3]": {"tested_on": "confluent hiPSC (DF6-9-9T)", "assay": "Bright field imaging of cell morphology", "type": "cell-based, human", "method": "(§2) In Vitro Toxicity Assays: Treatment with small molecules or glucose deprivation was initiated in hESC or hiPSC at 24 and 96 h post-plating and in vitro toxicity assays were performed at specified treatment endpoints 24-96 hours after treatment initiation. […] Neutral red assays for cell viability were performed as previously described. In vitro cell death was determined using SYTOX® Green nucleic acid stain (Life Technologies). Briefly, cells were incubated in 5 μM SYTOX® Green for 30 minutes at 37° C. in a humidified cell incubator with 5% CO2. Percent cell viability was determined by normalizing to replicate cells incubated with 120 μM digitonin (Sigma-Aldrich) and 5 μM SYTOX® Green. Imaging of cell viability was performed using Live/Dead® Viability/Cytotoxicity Kit, for mammalian cells (Life Technologies). Cells were stained for 20 minutes at room temperature with 4 μM Calcein AM to detect viable cells and 2 μM Ethidium Homodimer 1 to detect cells with compromised membranes. Representative images of alterations in cell morphology were acquired on confluent hPSC 24-72 hours after treatment initiation. Imaging was performed with a Nikon Ti-U inverted microscope."}, "[4]": {"tested_on": "H1 hESC colonies", "assay": "Elimination of hESC colonies grown on human fibroblast feeders (alkaline phosphatase staining, brightfield)", "type": "cell-based"}, "[5]": {"tested_on": "human fibroblasts", "assay": "Neutral red viability assay in fibroblasts", "type": "cell-based", "conditions": "24 hour treatment, 100 μM"}, "[6]": {"tested_on": "DF6-9-9T hiPSC-derived cardiomyocytes", "assay": "Neutral red viability assay in hiPSC-derived cardiomyocytes", "type": "cell-based", "conditions": "24 hour pulse treatment", "method": "as §2"}, "[7]": {"tested_on": "ARPE-19", "assay": "Viability and morphology of retinal pigmented epithelial cells", "type": "cell-based", "description": "(§3) Data expressed as mean+S.D. (n=4); p<0.05, **p<0.01, ***p<0.001. […] Data expressed as mean+S.D. (n=4), *p<0.05, **p<0.01, ***p<0.001."}, "[8]": {"tested_on": "day 10 cardiomyocytes derived from hiPSC (DF6-9-9T)", "assay": "Characterization of cardiomyocytes after STF-31 (contractility, flow cytometry, immunofluorescence, qPCR)", "type": "cell-based, human", "method": "Quantitative-real time PCR for TNNI3, Troponin T2 (TNNT2), and Homeobox protein Nkx-2.5 (NKX2-5) was performed as previously described using Taqman® Assays […] Cells were then fixed with 4% paraformaldehyde, permeabilized with 0.2% Triton-X, incubated with primary antibody for Troponin T (TNNT2) (Abcam: ab8295) overnight at 4° C. Cells were then incubated in secondary antibody goat anti-mouse IgG1-Alexa 568 (Life Tech: A-21124) and nuclei were detected with Hoechst 33342 (Life Tech: H21492). Cells were imaged with a Nikon Ti-U inverted microscope and Nikon Eclipse 90i confocal microscope."}, "[9]": {"tested_on": "sub-confluent hiPSC", "assay": "Cleaved caspase-3/7 fluorescence based assay", "type": "cell-based, human", "conditions": "after initiation of treatment; 2.5 μM STF-31, 30 μM WZB117"}, "[10]": {"tested_on": "PAX6 positive neural progenitor cells", "type": "cell-based", "description": "as §3"}, "[11]": {"tested_on": "mesenchymal stem cells, fibroblasts, retinal pigmented epithelial cells, hiPSC-derived cardiomyocytes, specified hepatic endoderm cells, neural progenitors", "type": "cell-based", "conditions": "2.5 μM for 72 hours", "method": "(C) Human iPSC-derived neural progenitors were treated with 2.5 μM for 72 hours and assessed by MTT assay (top; day 10 and day 12 progenitors) and immunofluorescence (bottom; day 12 progenitors shown).\nViability measurements were consistent with these visual observations. See data for cardiomyocytes, neural progenitors, and fibroblasts in FIGS. 8B-C). […] See Boheler et al., Stem Cell Reports 3, 185-203 (2014)."}, "[12]": {"conditions": "short term treatment (24 hours), 2.5 μM"}, "[13]": {"conditions": "5 μM 24 hour pulse, 72 hours after treatment initiation"}},
  "data": [
    {"smiles": "CC(C)(C)c1ccc(S(=O)(=O)NCc2ccc(C(=O)Nc3cccnc3)cc2)cc1", "note": "[STF-31, 4-[[[[4-(1,1-Dimethylethyl)phenyl]sulfonyl]amino]methyl]-N-3-pyridinyl-benzamide]", "values": [
      {"measurement": "viability at 72 h, 2.5 μM", "setting": "[1]", "result": "< 2", "unit": "%"},
      {"measurement": "LD50", "setting": "[2]; confluent hiPSC", "result": 1.78, "unit": "µM"},
      {"measurement": "LD50", "setting": "[2]; sub-confluent hiPSC", "result": 1.35, "unit": "µM"},
      {"measurement": "effect of increasing concentration on time of significant toxicity", "setting": "[2]; concentrations up to 100 μM, neutral red", "result": "did not accelerate the time"},
      {"measurement": "median lethal dose (LD50)", "setting": "[2]; confluent hiPSC, 48 hours after continuous treatment, neutral red", "result": 182, "unit": "nM"},
      {"measurement": "minimal treatment time to achieve complete toxicity of hPSC", "setting": "[2]; data not shown", "result": 24, "unit": "h"},
      {"measurement": "morphology of hiPSC", "setting": "[3]; 2.5 μM STF-31, 24 hour incubation", "result": "did not modify the morphology"},
      {"measurement": "morphology of hiPSC", "setting": "[3]; 2.5 μM STF-31, 48 hour treatment", "result": "patches of diminished, non-adherent cells and reduction in overall cell number"},
      {"measurement": "morphology of hiPSC", "setting": "[3]; 72 hours, 2.5 μM STF-31, 30 μM WZB117, 20 μM PluriSIn", "result": "highly toxic"},
      {"measurement": "colonies by alkaline phosphatase staining", "setting": "[4]; after 96 hours of treatment, 2.5 μM", "result": "Colonies were not detected"},
      {"measurement": "time at which toxicity occurs", "setting": "[4]; hESC colonies on human fibroblast feeder cells, 2.5 μM", "result": "48 to 72", "unit": "h"},
      {"measurement": "colony growth after passaging", "setting": "[4]; passaged 96 hours after treatment initiation, cultured additional 72 hours", "result": "No colony growth or alkaline phosphatase activity was detected"},
      {"measurement": "reduction of fibroblast viability", "setting": "[5]", "result": 30, "unit": "%"},
      {"measurement": "LD50", "setting": "[6]", "result": 40, "unit": "µM"},
      {"measurement": "LD50 cardiomyocytes relative to hiPSC", "setting": "[6]", "result": 22, "unit": "fold"},
      {"measurement": "ARPE cell morphology or viability", "setting": "[7]; 2.5 μM for up to 72 hours", "result": "no adverse effects"},
      {"measurement": "toxicity", "setting": "[7]; [12]", "result": "does not result in significant toxicity"},
      {"measurement": "cell viability", "setting": "[7]; treatment time extended to 72 hours, data not shown", "result": "did not result in a decrease in cell viability"},
      {"measurement": "expression of cardiac genes (q-PCR)", "setting": "[8]; 5 μM 24 hour pulse, 24-72 hours after initiation", "result": "not significantly altered"},
      {"measurement": "abundance of cardiac markers TNNI3 and IRX4 (flow cytometry)", "setting": "[8]; [13]", "result": "did not affect abundance"},
      {"measurement": "structural organization of TNNT2", "setting": "[8]; [13]", "result": "maintained comparable structural organization"},
      {"measurement": "cardiomyocyte spontaneous contractility", "setting": "[8]; 5 μM for 24 hours, day 10 cardiomyocytes", "result": "did not affect cardiomyocyte spontaneous contractility"},
      {"measurement": "contractions, protein and mRNA levels of cardiomyocyte markers, structural features compared with controls", "setting": "[8]; treated on day 5 and day 10 of differentiation", "result": "indistinguishable from controls"},
      {"measurement": "time of induction of caspase-3/7 activity", "setting": "[9]", "result": 24, "unit": "h"},
      {"measurement": "viability (MTT) and immunofluorescence compared with controls", "setting": "[10]; 2.5 μM for 72 hours, day 10 and day 12 progenitors", "result": "indistinguishable from controls"},
      {"measurement": "toxicity", "setting": "[10]; [12]", "result": "does not result in significant toxicity"},
      {"measurement": "visible changes in morphology or cell death", "setting": "[11]", "result": "None of these cell types exhibited visible changes in morphology or obvious cell death"}
    ]}
  ]
}
